One assay concerns ECM gathering. As to conditions: animal experiments of renal fibrosis, pulmonary fibrosis; clinical trials of patients with specific lung fibrosis; cited from earlier work.
The test system of a further assay is BHK-21 cells. Description: inhibition of BHK-21 cell proliferation (CCK-8, optical density at 450 nm). As to conditions: for IC50: Mesocricetus auratus, inhibition ratio of cell proliferation, 48 hours after dosing, CCK-8; for The ratio with PFD (multiple): ratio of Pirfenidone IC50 from the compound IC50, the bigger the multiple, the better the vitro inhibitory activity, 48 hours. The assay is classed as cell-based. The method, then:
Taking BHK-21 cells which in exponential growth phase, collecting and counting the cells which had digestive transfer culture after fusion growth 85-95%, adjusting the cell density to 2×10^4 cells per milliliter, seeding the cells into 96-well plates, 100 μl/well, the cells were incubated in a 5% CO2 incubator at 37° C.
The upper clear liquid of the 96-well plates was removed after the cells adhering to the wall 24 hours. The above compounds were confected into solutions of different concentration and the solutions were added to the wells, 100 μl/well. Each concentration solution in 3 replicates, the cells were subcultured 48 hours after dosing.
3. Testing the Optical Density
10 μl of CCK-8 solution was added to each well 48 hours after dosing, and incubated for 2 hours. The optical density (A) of each well was determined by a microplate reader at 450 nm wavelength. Calculating the inhibition ratio of cell proliferation of each compound is based on A and the inhibition ratio of cell proliferation (inhibition ratio, IR)=(1−value of experimental group (Ai)/value of control group (Ao))×100% and the IC50 of each compound at 48 hours was calculated by data processing software.

The text below walks through data of patent US9434695B2, “Nitrogenous heterocyclic derivatives and their application in drugs” (SUNSHINE LAKE PHARMA CO., LTD., priority 2012, dated 2016).

Turning to `Cc1ccc(=O)n(-c2ccccc2)c1` [pirfenidone, 5-methyl-1-phenyl-2-(1H)-pyridone], in the assay on ECM gathering, the “effect on ECM gathering” value is listed as “could prevent ECM gathering, or even reverse it”.
Broadly, the IC50 is the concentration needed to halve the response being measured. As for `Cc1cc(=O)n(-c2cc(F)c3c(c2)OCC2CCCN32)c(C)n1` (centres unmarked) [Example 13, 3-(9-fluoro-2,3,3a,4-tetrahydro-1H-benzo[b]pyrrolo[1,2-d][1,4]oxazin-7-yl)-2,6-dimethylpyrimidin-4(3H)-one], in the assay on BHK-21 cells, the IC50 turned out to be 1980 µM and the “The ratio with PFD (multiple)” value stood at 2.01 multiple.
For the compound `Cc1cc(=O)n(-c2cnc(-c3ccc(N4CCOCC4)cc3)s2)c(C)n1` [Example 15, 2,6-dimethyl-3-(2-(4-morpholinophenyl)thiazol-5-yl)pyrimidin-4(3H)-one], in the assay on BHK-21 cells, the IC50 is 970 µM and the “The ratio with PFD (multiple)” value turned out to be 3.97 multiple.
The matching figures for `Cc1cc(=O)n(-c2ccc(N3CCCC3)c(F)c2)c(C)n1` [Example 21, 3-(3-fluoro-4-(pyrrolidin-1-yl)phenyl)-2,6-dimethylpyrimidin-4(3H)-one]: 1300 µM and 5.57 multiple.
Consider `CCCCCCN(CCCCCC)c1ccc(-n2c(C)nc(C)cc2=O)cc1Cl` [Example 40, 3-(3-chloro-4-(dihexylamino)phenyl)-2,6-dimethylpyrimidin-4(3H)-one], for which, in the assay with BHK-21 cells, the IC50 came to 60 µM and the “The ratio with PFD (multiple)” value is 127.50 multiple.
Regarding `Cc1cc(=O)n(-c2ccc(NCCN3CCCCC3)c(F)c2)c(C)n1` [Example 36, 3-(3-fluoro-4-((2-(piperidin-1-yl)ethyl)amino)phenyl)-2,6-dimethylpyrimidin-4(3H)-one], in the assay with BHK-21 cells, the IC50 was determined as 2700 µM and the “The ratio with PFD (multiple)” value was found to be 2.90 multiple.
Consider `Cc1cc(=O)n(-c2ccc(NCCCN3CCOCC3)c(F)c2)c(C)n1` [Example 30, 3-(3-fluoro-4-((3-morpholinopropyl)amino)phenyl)-2,6-dimethylpyrimidin-4(3H)-one], for which, in the assay with BHK-21 cells, the IC50 worked out at 540 µM and the “The ratio with PFD (multiple)” value is reported as 13.18 multiple.
`Cc1cc(=O)n(-c2ccc(NCCc3cc4ccccc4[nH]3)c(F)c2)c(C)n1` [Example 38, 3-(4-((2-(1H-indol-2-yl)ethyl)amino)-3-fluorophenyl)-2,6-dimethylpyrimidin-4(3H)-one]: in the assay with BHK-21 cells, the IC50 is 490 µM and the “The ratio with PFD (multiple)” value turned out to be 15.80 multiple.
Consider `Cc1cc(=O)n(-c2ccc(N3CCOCC3)c(F)c2)c(C)n1` [Example 7, 3-(3-fluoro-4-morpholinophenyl)-2,6-dimethylpyrimidin-4(3H)-one], for which, in the assay on BHK-21 cells, the IC50 was determined as 740 µM and the “The ratio with PFD (multiple)” value is listed as 1.35 multiple.
Consider `Cc1cc(=O)n(-c2ccc(NCCN3CCOCC3)c(F)c2)c(COc2cccc(F)c2)n1` [Example 57, 3-(3-fluoro-4-((2-morpholinoethyl)amino)phenyl)-2-((3-fluorophenoxy)methyl)-6-methylpyrimidin-4(3H)-one], for which, in the assay with BHK-21 cells, the IC50 amounted to 100 µM and the “The ratio with PFD (multiple)” value stood at 84.22 multiple.
The like results for `Cc1cc(=O)n(-c2ccc(-n3cccn3)c(F)c2)c(C)n1` [Example 19, 3-(3-fluoro-4-(1H-pyrazol-1-yl)phenyl)-2,6-dimethylpyrimidin-4(3H)-one] were, in that order, 1190 µM and 3.21 multiple.
The like results for `Cc1cc(=O)n(-c2ccc(N3CCOCC3)c(Cl)c2)c(C)n1` [Example 46, 3-(3-chloro-4-morpholinophenyl)-2,6-dimethylpyrimidin-4(3H)-one] were, in that order, 1070 µM and 2.80 multiple.
The matching figures for `C#Cc1cccc(OCc2nc(C)cc(=O)n2-c2ccc(N3CCOCC3)c(F)c2)c1` [Example 68]: 110 µM and 26.80 multiple.
`Cc1cc(=O)n(-c2ccc(N3CCCCC3)c(F)c2)c(C)n1` [Example 11, 3-(3-fluoro-4-(piperidin-1-yl)phenyl)-2,6-dimethylpyrimidin-4(3H)-one]: in the assay with BHK-21 cells, the IC50 came to 1320 µM and the “The ratio with PFD (multiple)” value turned out to be 2.91 multiple.
The matching figures for `Cc1cc(=O)n(-c2ccc(N3CCOCC3)c(F)c2)c(COc2cccc(F)c2)n1` [Example 20, 3-(3-fluoro-4-morpholinophenyl)-2-((3-fluorophenoxy)methyl)-6-methylpyrimidin-4(3H)-one]: 40 µM and 95.70 multiple.
The like results for `CCCCCCN(CCCCCC)c1ccc(-n2c(C)nc(C)cc2=O)cc1C#N` [Example 42, 2-(dihexylamino)-5-(2,4-dimethyl-6-oxopyrimidin-1(6H)-yl)benzonitrile] were, in that order, 70 µM and 27.39 multiple.
For `CCCCCCN(CCCCCC)c1ccc(-n2c(C)nc(C)cc2=O)cc1F` [Example 24, 3-(4-(di-n-hexylamino)-3-fluorophenyl)-2,6-dimethylpyrimidin-4(3H)-one], in the assay on BHK-21 cells, the IC50 was 40 µM and the “The ratio with PFD (multiple)” value amounted to 60.63 multiple.
With `Cc1cc(=O)n(-c2ccc(N3CCOCC3)c(F)c2)c(COc2cccnc2)n1` [Example 59, 3-(3-fluoro-4-morpholinophenyl)-6-methyl-2-((pyridin-3-yloxy)methyl)pyrimidin-4(3H)-one], in the assay with BHK-21 cells, the IC50 was 300 µM and the “The ratio with PFD (multiple)” value is reported as 25.50 multiple.
Take `Cc1cc(=O)n(-c2ccc(N3CCOCC3)c(F)c2)c(COc2ccc(F)c(F)c2)n1` [Example 49, 2-((3,4-difluorophenoxy)methyl)-3-(3-fluoro-4-morpholinophenyl)-6-methylpyrimidin-4(3H)-one]: in the assay with BHK-21 cells, the IC50 turned out to be 70 µM and the “The ratio with PFD (multiple)” value is on record as 35.52 multiple.
The like results for `Cc1cc(=O)n(-c2ccc(NCCCn3cnnn3)c(F)c2)c(C)n1` [Example 37, 3-(4-((3-(1H-tetrazol-1-yl)propyl)amino)-3-fluorophenyl)-2,6-dimethylpyrimidin-4(3H)-one] were, in that order, 4310 µM and 1.80 multiple.
The matching figures for `Cc1cc(=O)n(-c2ccc(NCCCn3ccnc3)c(F)c2)c(C)n1` [Example 35, 3-(4-((3-(1H-imidazol-1-yl)propyl)amino)-3-fluorophenyl)-2,6-dimethylpyrimidin-4(3H)-one]: 3010 µM and 2.60 multiple.
For the compound `CCCCN(CCCC)c1ccc(-n2c(C)nc(C)cc2=O)cc1F` [Example 22, 3-(4-(di-n-butylamino)-3-fluorophenyl)-2,6-dimethylpyrimidin-4(3H)-one], in the assay on BHK-21 cells, the IC50 came to 190 µM and the “The ratio with PFD (multiple)” value was 39.47 multiple.
On to `Cc1cc(=O)n(-c2ccc(N3CCOCC3)c(F)c2)c(CSc2cccc(F)c2)n1` [Example 51, 3-(3-fluoro-4-morpholinophenyl)-2-(((3-fluorophenyl)thio)methyl)-6-methylpyrimidin-4(3H)-one], for which, in the assay on BHK-21 cells, the IC50 was found to be 100 µM and the “The ratio with PFD (multiple)” value is recorded as 25.14 multiple.
The matching figures for `Cc1cc(=O)n(-c2ccc(N3CCOCC3)c(F)c2)c(COc2cncc(F)c2)n1` [Example 60, 3-(3-fluoro-4-morpholinophenyl)-2-(((5-fluoropyridin-3-yl)oxy)methyl)-6-methylpyrimidin-4(3H)-one]: 540 µM and 13.72 multiple.
